Test results taken from patent US7811832B2, “Methods for preserving the viability of photoreceptor cells by anti-FAS-ligand/anti-FAS-receptor antibodies” (Massachusetts Eye and Ear Infirmary, priority 2002, dated 2010).

Assays:
[1] = molecular target: T1, caspase 1 (Homo sapiens, UniProt P29466); settings: cited from earlier work
T1 sequence (P29466 120-297 limits assumed): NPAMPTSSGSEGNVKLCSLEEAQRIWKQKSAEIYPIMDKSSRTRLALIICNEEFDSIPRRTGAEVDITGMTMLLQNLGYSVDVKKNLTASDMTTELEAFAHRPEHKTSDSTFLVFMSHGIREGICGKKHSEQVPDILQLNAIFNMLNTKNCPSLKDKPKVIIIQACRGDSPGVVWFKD
T1 sequence (P29466 317-404 limits assumed): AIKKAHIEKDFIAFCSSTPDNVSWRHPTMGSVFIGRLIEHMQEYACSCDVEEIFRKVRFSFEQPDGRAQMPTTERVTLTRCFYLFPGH

[2] = molecular target: T2, caspase 4 (Homo sapiens, UniProt P49662); settings: cited from earlier work
T2 sequence (P49662 81-270 limits assumed): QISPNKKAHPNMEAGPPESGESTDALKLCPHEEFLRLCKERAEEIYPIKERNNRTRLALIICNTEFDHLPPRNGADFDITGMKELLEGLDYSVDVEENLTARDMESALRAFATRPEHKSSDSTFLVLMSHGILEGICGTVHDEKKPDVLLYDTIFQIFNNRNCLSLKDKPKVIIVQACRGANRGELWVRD
T2 sequence (P49662 290-377 limits assumed): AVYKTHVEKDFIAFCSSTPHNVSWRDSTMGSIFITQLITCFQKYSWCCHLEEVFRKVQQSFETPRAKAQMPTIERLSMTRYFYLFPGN

[3] = molecular target: T3, caspase 3 (Homo sapiens, UniProt P42574); settings: cited from earlier work
T3 sequence (P42574 29-175 limits assumed): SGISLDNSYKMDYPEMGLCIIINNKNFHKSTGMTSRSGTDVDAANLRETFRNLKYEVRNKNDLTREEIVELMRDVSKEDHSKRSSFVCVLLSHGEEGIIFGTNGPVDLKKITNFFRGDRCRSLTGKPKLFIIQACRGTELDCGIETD
T3 sequence (P42574 176-277 limits assumed): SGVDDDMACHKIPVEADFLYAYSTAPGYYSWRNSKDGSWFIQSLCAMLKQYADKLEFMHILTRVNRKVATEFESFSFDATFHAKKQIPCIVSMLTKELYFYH

[4] = molecular target: T4, caspase 7 (Homo sapiens, UniProt P55210); settings: cited from earlier work
T4 sequence (P55210 24-198 limits assumed): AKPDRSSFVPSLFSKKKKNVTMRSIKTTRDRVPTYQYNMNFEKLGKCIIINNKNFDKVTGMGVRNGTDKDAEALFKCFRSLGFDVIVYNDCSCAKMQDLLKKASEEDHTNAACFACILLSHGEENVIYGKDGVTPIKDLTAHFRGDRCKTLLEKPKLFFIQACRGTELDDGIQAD
T4 sequence (P55210 207-303 limits assumed): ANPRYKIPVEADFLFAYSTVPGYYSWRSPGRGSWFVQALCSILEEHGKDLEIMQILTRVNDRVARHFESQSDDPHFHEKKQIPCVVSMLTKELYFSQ

[5] = system: caspase 9; assay: Caspase 9 activity (LEHD-pNA cleavage) in detached retina after injection of inhibitor at the time of detachment; type: in vivo, Brown-Norway rats; settings: 5 μl of 2 mM solution in DMSO into the subretinal space, 24 hours after retinal detachment, normalized to attached retina
Description: Briefly, rats were anesthetized with a 50:50 mix of ketamine (100 mg/ml) and xylazine (20 mg/ml), and pupils were dilated with topical phenylephrine (2.5%) and tropicamide (1%). A sclerotomy was created approximately 2 mm posterior to the limbus with a 20-guage microvitreoretinal blade (Walcott Scientific, Marmora, N.J.), with special caution to not damage the lens. A Glaser subretinal injector (32-gauge tip; BD Ophthalmic Systems, Sarasota, Fla.) connected to a syringe filled with 10 mg/ml sodium hyaluronate (Healon®; Pharmacia and Upjohn Co., Kalamazoo, Mich.) was introduced through the sclerotomy into the vitreous cavity. The tip of the subretinal injector was introduced into the subretinal space through a peripheral retinotomy, and the sodium hyaluronate was slowly injected. The neurosensory retina was thus detached from the underlying retinal pigment epithelium. In all experiments, approximately one-third to one-half of the retina was detached. Detachments were made in the left eye, with the right eye serving as the control. […]
Caspase 9 activity was measured using a calorimetric tetrapeptide LEHD-pNA cleavage assay kit according to the manufacturer's instructions (BioVision, Mountain View, Calif.). […] Absorbance was measured at 405 nm in a microplate reader (SpectraMAX 190, Molecular Devices). […]

[6] = system: photoreceptor cells; assay: TUNEL staining of outer nuclear layer after experimental retinal detachment; type: in vivo, Brown Norway rats; settings: detached retina (left eye); 5 μl of 2 mM in DMSO subretinal; 72 hours after detachment; TUNEL-positive cells/100 cells in outer nuclear layer
Description: Briefly, the retinal detachments were created in the left eyes of three Brown Norway rats, as described in Example 2, section 2.1. The detachment was located on the temporal portion of the retina, and comprised approximately one third of the total retinal area.
A first rat received the retinal detachment only. A second rat received the retinal detachment and a caspase 9 inhibitor in DMSO. Briefly, immediately after the retina was detached, 5 μl of the zLEHD.fmk (2 mM solution in DMSO) (BioVision) was injected into the subretinal space of the detached retina using a Hamilton Syringe (Hamilton Corp, Reno, Nev.). A third rat received the retinal detachment and DMSO (solvent control). Briefly, 5 μl of DMSO was injected into the subretinal space of the detached retinas as a control for the solvent in which the zLEHD.fmk was dissolved.
The rats were allowed to recover from the surgery and were returned to their cages, as per standard animal care protocols. Seventy-two hours (3 days) after creation of the detachments, the eyes were enucleated and immersion-fixed in 4% paraformaldehyde solution for 24 hours. The fixed eyes were then embedded in paraffin and sectioned for histologic analysis. […]
The number of TUNEL-positive cells/100 cells in the outer nuclear layer were counted for 3 high power fields per section for 2 separate slides.

Row | Substance | Ki [1] [µM] | Ki [2] [µM] | Ki [3] [µM] | Ki [4] [µM] | caspase 9 activity, % of the control level [5] | % TUNEL positive cells [6] [% TUNEL positive]
1 | Ac-Tyr-Val-Ala-Asp-aldehyde | 0.01 | 0.01 | ≥ 50 | ≥ 50 | – | –
2 | z-Leu-Glu-His-Asp-fluoromethylketone [zLEHD.fmk] | – | – | – | – | approximately 50% | 4.6
